# Results: patent US20110283416A1, “METHODS FOR PLANT FIBER CHARACTERIZATION AND IDENTIFICATION” (LE CENTRE NATIONAL DE LA RECHERCHE SCIENTIFIQUE, priority 2008, published 2011)
# Like-named read-outs stand apart in the source and are kept apart here.
# Key:
# CYP77A4 [1] = target: T1, CYP77A4 (Arabidopsis thaliana, UniProt Q9LZ31); settings: for amount of conversion of fatty acid / conversion as substrate of CYP77A4 (in words): 100 μM fatty acid, 10 pmole CYP77A4, 27° C., 15 minutes (FIG. 4); for epoxide product formed by CYP77A4 (GC-MS identification): 100 μM substrate, 15-20 min
# T1 sequence (Q9LZ31 1-512): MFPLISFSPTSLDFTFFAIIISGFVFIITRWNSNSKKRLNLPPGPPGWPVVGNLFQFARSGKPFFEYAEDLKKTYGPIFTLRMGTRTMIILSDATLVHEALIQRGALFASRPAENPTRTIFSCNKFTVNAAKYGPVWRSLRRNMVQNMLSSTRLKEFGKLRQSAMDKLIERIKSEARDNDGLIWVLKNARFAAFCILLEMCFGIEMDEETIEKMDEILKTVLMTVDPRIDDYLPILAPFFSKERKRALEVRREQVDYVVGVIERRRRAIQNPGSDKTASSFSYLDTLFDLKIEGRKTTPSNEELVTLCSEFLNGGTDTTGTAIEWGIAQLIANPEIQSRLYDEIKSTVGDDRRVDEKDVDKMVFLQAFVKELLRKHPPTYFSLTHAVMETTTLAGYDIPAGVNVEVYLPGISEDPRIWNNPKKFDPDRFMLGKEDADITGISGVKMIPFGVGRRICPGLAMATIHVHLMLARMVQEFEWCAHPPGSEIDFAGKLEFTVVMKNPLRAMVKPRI
# CYP77A4 [2] = target: T1, CYP77A4; type: biochemical; settings: 4.5 pmoles CYP77A4, 5 min, calculated with Enzyme Kinetics (Sigma Plot); for Km: read-out: Km for metabolism by CYP77A4
# CYP77A4 expression [3] = settings: in vivo
# CYP77A4 expression [4] = experiment: Induction of CYP77A4 expression by external factors, quantitative PCR on entire plantlets; settings: after 5 hours; ethanol as control; qPCR (FIG. 3)
# [5] = GC-MS analysis of metabolite fraction
# [6] = 27° C., 10 pmole CYP77A4, NADPH
# [7] = 100 μM, 15 minutes, 27° C., 10 pmole CYP77A4, NADPH
smiles,measurement,setting,value
"CCCCCCCCCCCC(=O)O [C12:0, lauric acid]",amount of conversion of fatty acid,CYP77A4 [1],about 35%
same,conversion as substrate of CYP77A4 (in words),CYP77A4 [1],optimal substrate
same,share of omega-1 hydroxylated metabolite,CYP77A4 [1]; [5],53%
same,share of omega-2 hydroxylated metabolite,CYP77A4 [1]; [5],15.2%
same,share of omega-3 hydroxylated metabolite,CYP77A4 [1]; [5],7.6%
same,share of omega-4 hydroxylated metabolite,CYP77A4 [1]; [5],18.2%
same,share of omega-5 hydroxylated metabolite,CYP77A4 [1]; [5],6%
CCCCC/C=C\C/C=C\CCCCCCCC(=O)O [linoleic acid],Vmax for metabolism by CYP77A4,CYP77A4 [2],13±0.3 nmol·min^−1·nmol^−1 P450
same,Km,CYP77A4 [2],61 ± 3 µM
same,conversion as substrate of CYP77A4 (in words),CYP77A4 [1],increasing order of conversion
same,epoxide product formed by CYP77A4 (GC-MS identification),CYP77A4 [1]; [6],12-13 epoxy form of linolenic acid
CC/C=C\C/C=C\C/C=C\CCCCCCCC(=O)O [linolenic acid],Km,CYP77A4 [2],29 ± 4 µM
same,amount of conversion of fatty acid,CYP77A4 [1],about 20%
same,conversion as substrate of CYP77A4 (in words),CYP77A4 [1],increasing order of conversion
same,share of 12-13 mono-epoxy form among mono-epoxy products,CYP77A4 [1]; [7],87%
same,share of each of the other two mono-epoxy structures,CYP77A4 [1]; [7],6.5%
OC[C@@H](O)[C@@H](O)[C@H](O)[C@H](O)CO [mannitol],induction of the expression of CYP77A4,CYP77A4 expression [3],~20 fold
same,induction of the transcription of CYP77A4,CYP77A4 expression [3],18 fold
CCCCCCCC/C=C\CCCCCCCC(=O)O [oleic acid],Vmax for metabolism by CYP77A4,CYP77A4 [2],26±5 nmol·min^−1·nmol^−1 P450
same,conversion as substrate of CYP77A4 (in words),CYP77A4 [1],increasing order of conversion
same,epoxide product formed by CYP77A4 (GC-MS identification),CYP77A4 [1]; [6],"epoxy form (at position 9, 10) of oleic acid"
CCC1(c2ccccc2)C(=O)NC(=O)NC1=O [phenobarbital],induction of the expression of CYP77A4,CYP77A4 expression [4],12 fold
